# From article PMC10269678, “Identification of Fungus-Derived Natural Products as New Antigiardial Scaffolds” (Microbiology Spectrum, 2023)
# Like-named read-outs stand apart in the source and are kept apart here.
# What was measured:
# G. lamblia strain CBG99 [1] = assay: G. lamblia CBG99 luciferase reporter trophozoite growth assay; assay type: cell-based, Giardia lamblia; settings: for % inhibition at 10 μM: pNP tested at 10 μM, G. lamblia growth, primary screen; for inhibition at 10 µM: read-out: % inhibition at 10 μM; for times more potent than metronidazole: relative to metronidazole EC50 of 5 μM
# Excerpt: For in vitro Giardia assays, we used a click beetle green (CBG99) luciferase-based reporter system that was developed for quantitative bioluminescence readouts of growth in trophozoites ([13][–][15]). The CBG99 reporter gene is under the control of the glutamate dehydrogenase promoter, which is highly expressed in the G. lamblia trophozoite stage, making it useful for monitoring growth even in mouse infection models ([15]). The compound library was obtained from the Natural Products Discovery Group (NPDG) at the University of Oklahoma ([16]). A combination of 755 purified natural products (pNPs) and 1,056 fungal extracts were screened against G. lamblia strain CBG99. Hits were defined as samples that caused ≥50% growth inhibition activity at 10 μM (pNPs) or 5 μg/mL (extracts). […] Only 2 were considered false positives (EC50 > 10 μM) (Table 2).
# G. lamblia strain CBG99 [2] = tested on: G. lamblia strain CBG99; parameters: method as in PMID 26324270; settings: cited from earlier work
# [3] = G. lamblia trophozoite growth in vitro, Table 2, read-out: EC50 ± SD
# [4] = Giardia duodenalis, read-out: EC50 against G. lamblia trophozoite
# [5] = Giardia duodenalis, read-out: EC50 ± SD (μM)
molecule,measurement,setting,value
CC(C)C(=O)c1nc2ccccc2c(=O)n1C1CC2(OC1=O)c1ccccc1N1C(=O)C(C)(C)NC12 (centres unmarked) [J36B],EC50,G. lamblia strain CBG99 [1]; Giardia duodenalis,0.044 µM
"C=C1CC[C@@H](OC(=O)/C=C/C=C/C=C/C=C/C(=O)O)[C@@H](OC)[C@H]1[C@@]1(C)O[C@@H]1CC=C(C)C [NPDG 150138, Sch 528647]",EC50,G. lamblia strain CBG99 [1]; [3],3.09 ± 0.16 µM
same,% inhibition at 10 μM,G. lamblia strain CBG99 [1],88%
"COC1=CC(=O)C[C@@H](C)[C@]12Oc1c(Cl)c(OC)cc(OC)c1C2=O [J16K, Griseofulvin]",EC50,G. lamblia strain CBG99 [1]; Giardia duodenalis,7.88 µM
"C/C=C/C=C/C=C/C(=O)O[C@@H]1C=C2COC(=O)[C@]2(O)[C@@]2(C)CCCC(C)(C)[C@H]12 [NPDG 150125, RES-1149-2]",inhibition at 10 µM,G. lamblia strain CBG99 [1]; Giardia duodenalis,88%
same,EC50,G. lamblia strain CBG99 [1]; [4],< 0.2 µM
same,EC50,G. lamblia strain CBG99 [1]; [5],0.18 ± 0.11 µM
same,times more potent than metronidazole,G. lamblia strain CBG99 [1],> 25 times
"CC(=O)C1=C(O)[C@@H]2[C@H]3c4c[nH]c5cccc(c45)C[C@H]3C(C)(C)N2C1=O [NPDG 170027, Cyclopiazonic acid]",inhibition at 10 µM,G. lamblia strain CBG99 [1]; Giardia duodenalis,81%
same,EC50,G. lamblia strain CBG99 [1]; [5],1.3 ± 0.71 µM
"COC(=O)c1c(Sc2c(O)cc3oc4cc(C)cc(O)c4c(=O)c3c2C(=O)OC)c(O)cc(OC)c1C(=O)c1c(O)cc(C)cc1O [NPDG 150051, Dioschrin]",EC50,G. lamblia strain CBG99 [1]; [3],3.21 ± 0.61 µM
same,% inhibition at 10 μM,G. lamblia strain CBG99 [1],82%
"C[C@@H]1N[C@H]2N(C1=O)c1ccccc1[C@@]21C[C@@H]2C(=O)N[C@@](C)(O1)c1nc3ccccc3c(=O)n12 [NPDG 170098, Fumiquinazoline C]",EC50,G. lamblia strain CBG99 [1]; [3],6.92 ± 8.5 µM
same,% inhibition at 10 μM,G. lamblia strain CBG99 [1],82%
"CO[C@@H]1[C@H](OC(=O)/C=C/C=C/C=C/C=C/C(=O)O)CC[C@]2(CO2)[C@H]1[C@@]1(C)O[C@@H]1CC=C(C)C [NPDG 170035, Fumagillin]",inhibition at 10 µM,G. lamblia strain CBG99 [1]; Giardia duodenalis,88%
same,EC50,G. lamblia strain CBG99 [1]; [4],< 0.2 µM
same,EC50,G. lamblia strain CBG99 [1]; [5],0.004 µM
same,times more potent than metronidazole,G. lamblia strain CBG99 [1],> 25 times
"CC(=O)OC(C)(C)[C@H]1O[C@H]2CC[C@@]3(C)[C@@](O)(CC[C@H]4Cc5c([nH]c6ccccc56)[C@@]43C)C2=CC1=O [NPDG 150113, 1′-O-acetylpaxilline]",EC50,G. lamblia strain CBG99 [1]; [3],3.4 µM
same,% inhibition at 10 μM,G. lamblia strain CBG99 [1],82%
"CC1(C)C(=O)N2c3ccccc3C3(CC(n4cnc5ccccc5c4=O)C(=O)O3)C2N1O (centres unmarked) [J16L, Tryptoquivaline L]",EC50,G. lamblia strain CBG99 [1]; Giardia duodenalis,7.15 µM
Perfraglin A [NPDG 120038],EC50,G. lamblia strain CBG99 [1]; [3],> 10 µM
same,% inhibition at 10 μM,G. lamblia strain CBG99 [1],75%
"COC12OC1(C13OC1(OC)C(=O)c1cc4cc(C)oc(=O)c4c(O)c1C3O)C(O)c1c(cc3cc(C)oc(=O)c3c1O)C2=O (centres unmarked) [J16R, Xanthoepocin]",EC50,G. lamblia strain CBG99 [1]; Giardia duodenalis,0.146 µM
"C/C=C(\C)c1cc(OC)c(C)c2c1Oc1c(CO)c(O)cc(/C(C)=C/C(=O)O)c1C(=O)O2 [NPDG 150134, Auranticin A]",inhibition at 10 µM,G. lamblia strain CBG99 [1]; Giardia duodenalis,89%
same,EC50,G. lamblia strain CBG99 [1]; [5],4.44 ± 3.02 µM
COC1C(OC(=O)C=CC=CC=CC=CC(=O)O)CCC(O)(CCl)C1C1(C)OC1CC=C(C)C (centres unmarked) [NPDG 150137],inhibition at 10 µM,G. lamblia strain CBG99 [1]; Giardia duodenalis,90%
same,EC50,G. lamblia strain CBG99 [1]; [4],< 0.2 µM
same,EC50,G. lamblia strain CBG99 [1]; [5],0.006 µM
same,times more potent than metronidazole,G. lamblia strain CBG99 [1],> 25 times
"N[C@H](C(=O)O)[C@@H]1CC(Cl)=NO1 [NPDG 120071, Acivicin]",inhibition at 10 µM,G. lamblia strain CBG99 [1]; Giardia duodenalis,85%
same,EC50,G. lamblia strain CBG99 [1]; [5],> 10 µM
"COC1=CC(=O)CC(C)C12Oc1cc(OC)cc(OC)c1C2=O (centres unmarked) [J16A, Dechlorogriseofulvin]",EC50,"G. lamblia strain CBG99 [1]; Giardia duodenalis, read-out: Giardia EC50 (μM)",> 15 µM
"COC(=O)C1=C[C@@H](O)[C@@H](O)[C@@H](O)[C@H]1N1C[C@H](O)[C@@H](OC(C)=O)[C@H]1Cc1ccc(OC)cc1 [NPDG 150029, Anisomycin 1-N-pericosine]",inhibition at 10 µM,G. lamblia strain CBG99 [1]; Giardia duodenalis,86%
same,EC50,G. lamblia strain CBG99 [1]; [5],3.32 ± 0.01 µM
"CC(C)=C1NC(=O)C(CC2(O)c3ccccc3N3C(=O)C(C)(C)NC32)n2c1nc1ccccc1c2=O (centres unmarked) [J16M, Quinadoline A]",EC50,G. lamblia strain CBG99 [1]; Giardia duodenalis,3.29 µM
"CC(=O)ON1C2N(C(=O)C1(C)C)c1ccccc1C21CC(n2c(C(O)C(C)C)nc3ccccc3c2=O)C(=O)O1 (centres unmarked) [J36C, isotryptoquivaline]",EC50,G. lamblia strain CBG99 [1]; Giardia duodenalis,0.84 µM
Cc1ncc([N+](=O)[O-])n1CCO [metronidazole],EC50,G. lamblia strain CBG99 [2],5 µM
"CC(=O)O[C@H]1C[C@@]2(C)[C@@H](CC[C@H]3[C@@]4(C)C=CC(=O)[C@@H](C)[C@@H]4[C@H](OC(C)=O)C(=O)[C@@]32C)/C1=C(\CCC=C(C)C)C(=O)O [NPDG 170028, Helvolic acid]",inhibition at 10 µM,G. lamblia strain CBG99 [1]; Giardia duodenalis,83%
same,EC50,G. lamblia strain CBG99 [1]; [5],3.36 ± 0.14 µM
"COC1=CC(=O)c2c(O)c(C)c(CC(C)=O)c(O)c2C1=O [NPDG 160012, Javanicin]",inhibition at 10 µM,G. lamblia strain CBG99 [1]; Giardia duodenalis,89%
same,EC50,G. lamblia strain CBG99 [1]; [5],1.26 ± 1.01 µM
"CO[C@@H]1[C@H](OC(=O)\C=C/C=C/C=C/C=C/C(=O)O)CC[C@]2(CO2)[C@H]1[C@@]1(C)O[C@@H]1CC=C(C)C [NPDG 150049, cis-Fumagillin]",inhibition at 10 µM,G. lamblia strain CBG99 [1]; Giardia duodenalis,85%
same,EC50,G. lamblia strain CBG99 [1]; [4],< 0.2 µM
same,EC50,G. lamblia strain CBG99 [1]; [5],0.03 ± 0.02 µM
same,times more potent than metronidazole,G. lamblia strain CBG99 [1],> 25 times
"CC(C)C1NC(=O)C(CC2(O)c3ccccc3N3C(=O)C(C)(C)NC32)n2c1nc1ccccc1c2=O (stereo not drawn) [J16E, epi-Fiscalin C]",EC50,G. lamblia strain CBG99 [1]; Giardia duodenalis,0.555 µM
